Results as given in the supplement of paper PMC10307832.

compound: CO[C@@H]1[C@H](N(C)C(=O)c2ccccc2)C[C@H]2O[C@]1(C)n1c3ccccc3c3c4c(c5c6ccccc6n2c5c31)C(=O)NC4 [Midostaurin] + C[C@]1(O)C[C@@H](c2nc(-c3ccc4ccc(-c5ccccc5)nc4c3)c3c(N)nccn32)C1 [Linsitinib] (partner 1 µM); assay: relative viability (nuclei count vs DMSO), 5 days (fraction); higher = more cells survive; conditions: first compound 0.01 µM
In short: (§1)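 A single step with final 0.05% Triton X-100, 1% formaldehyde and 1 ug/ml Hoechst fixed the cells and stained nuclei 5 days after treatment. Lung cancer cell lines in 1536-well plates had been treated by pin tool the day after seeding with one drug alone or a fixed anchor-drug dose plus five library-drug doses (not always all listed) in √10 steps, and nuclei were counted on 4× images. Relative viability is the ratio of nuclei in treated wells to nuclei in vehicle wells, taken as the median of duplicate plates.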

Cell Line | relative viability
HCC-827 | 0.928
LXF-289 | 1
NCI-H23 | 0.53
NCI-H647 | 1.09
CAL-12T | 0.721
NCI-H1651 | 1.06
EPLC-272H | 1.08
NCI-H2228 | 0.731
NCI-H1792 | 0.577
NCI-H1355 | 0.755
NCI-H3122 | 0.913
NCI-H1437 | 1.2
NCI-H1755 | 0.97
NCI-H2023 | 0.653
HCC-15 | 0.886
NCI-H1793 | 1.08
PC-14 | 0.995
EKVX | 0.953
LC-2-ad | 0.851
NCI-H1563 | 1.16
NCI-H1944 | 1.17
NCI-H1975 | 0.92
RERF-LC-KJ | 0.945
ABC-1 | 0.854
NCI-H358 | 0.818
NCI-H650 | 0.715
PC-3 [JPC-3] | 0.913

same assay, conditions: first compound 0.03162 µM

Cell Line | relative viability
HCC-827 | 0.883
LXF-289 | 0.967
NCI-H23 | 0.698
NCI-H647 | 1.37
CAL-12T | 0.672
NCI-H1651 | 0.851
EPLC-272H | 1.11
NCI-H2228 | 0.879
NCI-H1792 | 0.556
NCI-H1355 | 0.83
NCI-H3122 | 0.987
NCI-H1437 | 0.992
NCI-H1755 | 0.923
NCI-H2023 | 0.617
HCC-15 | 0.898
NCI-H1793 | 0.77
PC-14 | 0.943
EKVX | 1.03
LC-2-ad | 0.768
NCI-H1563 | 1.2
NCI-H1944 | 1.25
NCI-H1975 | 0.959
RERF-LC-KJ | 0.868
ABC-1 | 0.546
NCI-H358 | 0.607
NCI-H650 | 0.862
PC-3 [JPC-3] | 0.862

same assay, conditions: first compound 0.1 µM

Cell Line | relative viability
HCC-827 | 0.852
LXF-289 | 0.866
NCI-H23 | 0.362
NCI-H647 | 1.1
CAL-12T | 0.808
NCI-H1651 | 1.03
EPLC-272H | 1.17
NCI-H2228 | 0.828
NCI-H1792 | 0.499
NCI-H1355 | 0.865
NCI-H3122 | 1.13
NCI-H1437 | 1.12
NCI-H1755 | 0.865
NCI-H2023 | 0.515
HCC-15 | 0.904
NCI-H1793 | 0.651
PC-14 | 0.996
EKVX | 0.943
LC-2-ad | 0.849
NCI-H1563 | 1.03
NCI-H1944 | 1.31
NCI-H1975 | 0.727
RERF-LC-KJ | 0.89
ABC-1 | 0.628
NCI-H358 | 0.813
NCI-H650 | 0.76
PC-3 [JPC-3] | 0.925

same assay, conditions: first compound 0.3162 µM

Cell Line | relative viability
HCC-827 | 1.06
LXF-289 | 0.953
NCI-H23 | 0.508
NCI-H647 | 0.738
CAL-12T | 0.676
NCI-H1651 | 0.957
EPLC-272H | 1.22
NCI-H2228 | 0.679
NCI-H1792 | 0.526
NCI-H1355 | 0.838
NCI-H3122 | 1.05
NCI-H1437 | 1.05
NCI-H1755 | 0.692
NCI-H2023 | 0.403
HCC-15 | 0.818
NCI-H1793 | 0.559
PC-14 | 0.975
EKVX | 0.892
LC-2-ad | 0.631
NCI-H1563 | 1.11
NCI-H1944 | 1.28
NCI-H1975 | 0.575
RERF-LC-KJ | 0.926
ABC-1 | 0.727
NCI-H358 | 0.599
NCI-H650 | 0.508
PC-3 [JPC-3] | 0.934

compound: COc1cc(-c2nn([C@H]3CC[C@H](N4CCN(C(C)=O)CC4)CC3)c3ncnc(N)c23)ccc1NC(=O)c1cc2ccccc2n1C + CCNC(=O)c1noc(-c2cc(C(C)C)c(O)cc2O)c1-c1ccc(CN2CCOCC2)cc1 [Luminespib] (partner 0.01 µM); assay: as above; conditions: first compound 0.0128 µM
In short: as §1

Cell Line | relative viability
HCC-827 | 0.633
LXF-289 | 0.783
NCI-H23 | 0.198
NCI-H647 | 0.172
CAL-12T | 0.281
NCI-H1651 | 0.797
EPLC-272H | 0.331
NCI-H2228 | 0.184
NCI-H1792 | 0.424
NCI-H1355 | 0.798
NCI-H3122 | 0.0938
NCI-H1437 | 1.24
NCI-H1755 | 0.501
NCI-H2023 | 0.697
HCC-15 | 0.818
NCI-H1793 | 0.166
PC-14 | 0.196
EKVX | 0.864
LC-2-ad | 1.1
NCI-H1563 | 0.535
NCI-H1944 | 0.667
NCI-H1975 | 0.249
RERF-LC-KJ | 1.24
ABC-1 | 0.546
NCI-H358 | 0.452
NCI-H650 | 0.731
PC-3 [JPC-3] | 0.681

same assay, conditions: first compound 0.04048 µM

Cell Line | relative viability
HCC-827 | 0.66
LXF-289 | 0.732
NCI-H647 | 0.168
CAL-12T | 0.417
NCI-H1651 | 0.859
NCI-H2228 | 0.145
NCI-H1792 | 0.46
NCI-H1355 | 0.7
NCI-H1437 | 1.16
NCI-H1755 | 0.418
NCI-H2023 | 0.983
HCC-15 | 0.302
NCI-H1793 | 0.186
PC-14 | 0.138
EKVX | 0.988
LC-2-ad | 1.29
NCI-H1563 | 0.55
NCI-H1944 | 0.647
NCI-H1975 | 0.186
RERF-LC-KJ | 1.36
ABC-1 | 0.612
NCI-H358 | 0.251
NCI-H650 | 0.861
PC-3 [JPC-3] | 0.838

same assay, conditions: first compound 0.128 µM

Cell Line | relative viability
HCC-827 | 0.816
LXF-289 | 0.663
NCI-H23 | 0.201
NCI-H647 | 0.158
CAL-12T | 0.348
NCI-H1651 | 0.942
EPLC-272H | 0.257
NCI-H2228 | 0.141
NCI-H1792 | 0.498
NCI-H1355 | 0.726
NCI-H3122 | 0.0759
NCI-H1437 | 1.12
NCI-H1755 | 0.48
NCI-H2023 | 0.622
HCC-15 | 0.224
NCI-H1793 | 0.168
PC-14 | 0.232
EKVX | 0.795
LC-2-ad | 0.944
NCI-H1563 | 0.525
NCI-H1944 | 0.783
NCI-H1975 | 0.159
RERF-LC-KJ | 1.28
NCI-H358 | 0.395
NCI-H650 | 0.941
PC-3 [JPC-3] | 0.712

same assay, conditions: first compound 1.28 µM

Cell Line | relative viability
HCC-827 | 0.203
LXF-289 | 0.702
NCI-H23 | 0.191
NCI-H647 | 0.159
CAL-12T | 0.267
NCI-H1651 | 0.743
EPLC-272H | 0.209
NCI-H2228 | 0.115
NCI-H1792 | 0.35
NCI-H1355 | 0.639
NCI-H3122 | 0.069
NCI-H1437 | 1.08
NCI-H1755 | 0.308
NCI-H2023 | 0.767
HCC-15 | 0.23
NCI-H1793 | 0.156
PC-14 | 0.121
EKVX | 0.631
LC-2-ad | 0.932
NCI-H1563 | 0.5
NCI-H1944 | 0.477
NCI-H1975 | 0.123
RERF-LC-KJ | 1.29
ABC-1 | 0.332
NCI-H358 | 0.296
NCI-H650 | 0.754
PC-3 [JPC-3] | 0.711

compound: COc1cc(-c2nn([C@H]3CC[C@H](N4CCN(C(C)=O)CC4)CC3)c3ncnc(N)c23)ccc1NC(=O)c1cc2ccccc2n1C + COc1cccc2cc(-c3nc([C@H]4CC[C@H](C(=O)O)CC4)n4ncnc(N)c34)[nH]c12 [OSI-027] (partner 0.5 µM); assay: as above; conditions: first compound 0.0128 µM
In short: as §1

Cell Line | relative viability
HCC-827 | 0.817
LXF-289 | 0.875
NCI-H23 | 0.646
NCI-H647 | 0.594
CAL-12T | 0.638
NCI-H1651 | 0.664
EPLC-272H | 0.27
NCI-H2228 | 0.706
NCI-H1792 | 0.736
NCI-H1355 | 0.47
NCI-H3122 | 0.992
NCI-H1437 | 0.796
NCI-H1755 | 0.829
NCI-H2023 | 0.409
HCC-15 | 0.832
NCI-H1793 | 0.369
PC-14 | 0.896
EKVX | 0.765
LC-2-ad | 0.932
NCI-H1563 | 0.711
NCI-H1944 | 0.457
NCI-H1975 | 0.676
RERF-LC-KJ | 0.634
ABC-1 | 0.499
NCI-H358 | 0.645
NCI-H650 | 0.56
PC-3 [JPC-3] | 0.817

same assay, conditions: first compound 0.04048 µM

Cell Line | relative viability
HCC-827 | 0.658
LXF-289 | 0.76
NCI-H23 | 0.368
NCI-H647 | 0.656
CAL-12T | 0.497
NCI-H1651 | 0.748
NCI-H2228 | 0.637
NCI-H1792 | 0.523
NCI-H1355 | 0.315
NCI-H3122 | 0.333
NCI-H1437 | 0.992
NCI-H1755 | 0.644
NCI-H2023 | 0.4
HCC-15 | 0.463
NCI-H1793 | 0.177
PC-14 | 1.07
EKVX | 0.853
LC-2-ad | 0.776
NCI-H1563 | 0.86
NCI-H1944 | 0.332
NCI-H1975 | 0.669
RERF-LC-KJ | 0.536
ABC-1 | 0.434
NCI-H358 | 0.618
NCI-H650 | 0.798
PC-3 [JPC-3] | 0.817

same assay, conditions: first compound 0.128 µM

Cell Line | relative viability
HCC-827 | 0.666
LXF-289 | 0.71
